According to patent US20020177180A1, “pH-indicator based assay for selective enzymes” (ThermoGen, Inc., priority 1998, published 2002):

Tests used:
Format in all cases: biochemical
ThermoGen esterases = experiment: Initial screening (pH indicator): esters as substrates of the ThermoGen esterases, statements for the esterases as a group; settings: for quality as substrate of the ThermoGen esterases (in words), enantiomer pairs: enantiomer pair library, Tables 8-12; for estimated enantioselectivities with ThermoGen esterases (in words): ratio of initial rates of enantiomer pairs
Procedure: (§1) Initial screening measures the initial rate of hydrolysis of different esters. The rate of reaction was measured by monitoring the release of protons using a pH indicator, 4-nitrophenol. In this assay, the yellow color of the phenoxide disappears as the reaction proceeds. The amount of ester hydrolyzed can be measured quantitatively, as is known in the art.
(§2) To survey the substrate selectivity of the ThermoGen esterases, the ability of the enzymes to hydrolyze thirty-one different commercially-available esters, Scheme 1 (FIG. 9, Table 6).
To evaluate the potential of the ThermoGen esterases for enantioselective reactions, the initial rates of hydrolysis of the esterases were measured using twenty-one pairs of enantiomers, Scheme 2, FIG. 10 and Tables 8-12. The ratio of these initial rates is an estimated enantioselectivity.

esterase E015 = experiment: Initial screening of ThermoGen esterases toward esters 1-31 (pH indicator), specific activity; settings: 1 mM substrate, pH 7.2, 7 vol % acetonitrile, 25° C.
Procedure: as §1, §2

esterase E006 = experiment: as above; settings: 1 mM substrate, pH 7.2, 7 vol % acetonitrile, 25° C.
Procedure: as §1, §2

esterase E012 = experiment: as above; settings: 1 mM substrate, pH 7.2, 7 vol % acetonitrile, 25° C.
Procedure: as §1, §2

esterase E020 = experiment: as above; settings: 1 mM substrate, pH 7.2, 7 vol % acetonitrile, 25° C.
Procedure: as §1, §2

esterase E016 = experiment: as above; settings: 1 mM substrate, pH 7.2, 7 vol % acetonitrile, 25° C.
Procedure: as §1, §2

esterase E014 = experiment: as above; settings: 1 mM substrate, pH 7.2, 7 vol % acetonitrile, 25° C.
Procedure: as §1, §2

esterase E011 = experiment: as above; settings: 1 mM substrate, pH 7.2, 7 vol % acetonitrile, 25° C.
Procedure: as §1

Row | SMILES | quality as substrate of the ThermoGen esterases (in words), enantiomer pairs (ThermoGen esterases) | estimated enantioselectivities with ThermoGen esterases (in words) (ThermoGen esterases) | Specific activity, esterase E015 (esterase E015) | Specific activity, esterase E006 (esterase E006) | Specific activity, esterase E012 (esterase E012) | Specific activity, esterase E020 (esterase E020) | Specific activity, esterase E016 (esterase E016) | Specific activity, esterase E014 (esterase E014) | Specific activity, esterase E011 (esterase E011)
1 | COC(=O)C(C)CO (single isomer, unassigned) [Substrate 39] | poorest substrates |  |  |  |  |  |  |  | 
2 | O=C1CCC(CO)O1 (single isomer, unassigned) [Substrate 51] | poorest substrates |  |  |  |  |  |  |  | 
3 | CC1(COC(=O)c2ccc([N+](=O)[O-])cc2)CO1 (single isomer, unassigned) [Substrate 34] |  | estimated enantioselectivities above two with several esterases |  |  |  |  |  |  | 
4 | COC(=O)C(C)N (single isomer, unassigned) [Substrate 47] | poorest substrates | estimated enantioselectivities above two with several esterases |  |  |  |  |  |  | 
5 | O=C(OCC1CO1)c1ccc([N+](=O)[O-])cc1 (single isomer, unassigned) [Substrate 33] | best substrates |  |  |  |  |  |  |  | 
6 | CCCCCCCC(=O)OCC1COC(C)(C)O1 (single isomer, unassigned) [Substrate 35] | best substrates |  |  |  |  |  |  |  | 
7 | COC(=O)C(C)Cl (single isomer, unassigned) [Substrate 45] |  | higher estimated enantioselectivities with most ThermoGen esterases |  |  |  |  |  |  | 
8 | COC(=O)C(O)c1ccccc1 (single isomer, unassigned) [Substrate 46] | poorest substrates |  |  |  |  |  |  |  | 
9 | CCOC(=O)C1CCC(=O)N1 (single isomer, unassigned) [Substrate 48] | poorest substrates |  |  |  |  |  |  |  | 
10 | COC(=O)C(C)CBr (single isomer, unassigned) [Substrate 44] |  | estimated enantioselectivities above two with several esterases |  |  |  |  |  |  | 
11 | COC(=O)Cc1ccccc1 [Substrate 22] |  |  | 0.14 mmol ester hydrolyzed/min/mg protein | 0.16 mmol ester hydrolyzed/min/mg protein | <2 mmol ester hydrolyzed/min/mg protein | 0.28 mmol ester hydrolyzed/min/mg protein | <2 mmol ester hydrolyzed/min/mg protein | <0.1 mmol ester hydrolyzed/min/mg protein | <0.1 mmol ester hydrolyzed/min/mg protein
12 | CC(C)Cc1ccc(C(C)C(=O)Oc2ccc([N+](=O)[O-])cc2)cc1 (racemic) [Substrate 2, (±)-4-nitrophenyl 2-(4-isobutylphenyl)propanoate, reference compound] |  |  | 350 mmol ester hydrolyzed/min/mg protein | 260 mmol ester hydrolyzed/min/mg protein | 11 mmol ester hydrolyzed/min/mg protein | 370 mmol ester hydrolyzed/min/mg protein | 220 mmol ester hydrolyzed/min/mg protein | 170 mmol ester hydrolyzed/min/mg protein | 160 mmol ester hydrolyzed/min/mg protein
13 | C=C(C)OC(C)=O [Substrate 27] |  |  | 100 mmol ester hydrolyzed/min/mg protein | 69 mmol ester hydrolyzed/min/mg protein | 2.4 mmol ester hydrolyzed/min/mg protein | 3.3 mmol ester hydrolyzed/min/mg protein | 49 mmol ester hydrolyzed/min/mg protein | 0.73 mmol ester hydrolyzed/min/mg protein | 45 mmol ester hydrolyzed/min/mg protein
14 | C=COC(=O)CCCCCCC [Substrate 5] |  |  | 320 mmol ester hydrolyzed/min/mg protein | 960 mmol ester hydrolyzed/min/mg protein | 50 mmol ester hydrolyzed/min/mg protein | 1200 mmol ester hydrolyzed/min/mg protein | 1200 mmol ester hydrolyzed/min/mg protein | 8.0 mmol ester hydrolyzed/min/mg protein | 260 mmol ester hydrolyzed/min/mg protein
15 | C=COC(=O)CCCCCCCCCCCCC [Substrate 7] |  |  | 3.0 mmol ester hydrolyzed/min/mg protein | 0.61 mmol ester hydrolyzed/min/mg protein | 7.6 mmol ester hydrolyzed/min/mg protein | 1.0 mmol ester hydrolyzed/min/mg protein | 21 mmol ester hydrolyzed/min/mg protein | 0.81 mmol ester hydrolyzed/min/mg protein | 0.45 mmol ester hydrolyzed/min/mg protein
16 | CCCCCCCCCCCCCC(=O)Oc1ccc2nc3ccc(=O)cc-3oc2c1 [Substrate 6, Resorufin tetradecanoate, reference compound] |  |  | 330 mmol ester hydrolyzed/min/mg protein | 0.55 mmol ester hydrolyzed/min/mg protein | 27 mmol ester hydrolyzed/min/mg protein | 1200 mmol ester hydrolyzed/min/mg protein | 15 mmol ester hydrolyzed/min/mg protein | 170 mmol ester hydrolyzed/min/mg protein | 280 mmol ester hydrolyzed/min/mg protein
17 | CCCCCCCC(=O)OCC [Substrate 15] |  |  | 120 mmol ester hydrolyzed/min/mg protein | 160 mmol ester hydrolyzed/min/mg protein | 19 mmol ester hydrolyzed/min/mg protein | 2.6 mmol ester hydrolyzed/min/mg protein | 83 mmol ester hydrolyzed/min/mg protein | 5.1 mmol ester hydrolyzed/min/mg protein | 11 mmol ester hydrolyzed/min/mg protein
18 | CCCC(=O)OCC(COC(=O)CCC)OC(=O)CCC [Substrate 29] |  |  | 550 mmol ester hydrolyzed/min/mg protein | 370 mmol ester hydrolyzed/min/mg protein | 37 mmol ester hydrolyzed/min/mg protein | 560 mmol ester hydrolyzed/min/mg protein | 130 mmol ester hydrolyzed/min/mg protein | 280 mmol ester hydrolyzed/min/mg protein | 450 mmol ester hydrolyzed/min/mg protein
